# Reference: publication PMC12162873, “Modulating phosphatase DUSP22 with BML-260 ameliorates skeletal muscle wasting via Akt independent JNK-FOXO3a repression” (EMBO Molecular Medicine, 2025)
# Tests used:
# [1] = test system: TA muscle of C57BL/6 mice; experiment: Whole genome RNA-Seq of TA muscle of geriatric mice; assay type: in vivo, mouse; settings: 5 mg/kg IP every 24 h for 4 weeks
# Source text: Figure 8 Whole genome RNA Seq analysis of DUSP22 pharmacological targeting in geriatric mouse TA muscle. (A) Principal component analysis of gene expression variance in the vehicle treated (Con) and BML-260 treated groups (n = 3). (B) Volcano plot of differentially expressed genes. Selected genes linked to FOXO3a signaling are indicated. (C) Expression analysis of genes related to FOXO3a signaling measured by overall TPM fold change. The control was set as the baseline value of 1. A value of 2 would indicate a 2-fold increase, and 0.5 would indicates a 2-fold decrease. (D) Expression of selected genes linked to FOXO3a signaling as normalized counts from the raw read. (E) Expression of the exercise-induced myokine musclin (Ostn). (F) Gene ontology (GO) analysis of the […] muscle cell differentiation and muscle fiber development. Also shown are Six1 and Six4 (which specify fast twitch myofiber development), Ostn and fast myosin (MYH4; the predominant myosin type in the fast-twitch TA muscle). Box plots represent the distribution of Fbxo32, Trim63, Fbxo30, Gadd45a, Ctsl, Bnip3, Ostn expression levels. The center line indicates the median (50th percentile, Q2), representing the middle value of the dataset. The box bounds correspond to the interquartile range (IQR), extending from the 25th percentile (Q1, lower bound) to the 75th percentile (Q3, upper bound). Whiskers extend to the smallest and largest values within 1.5 × IQR from Q1 and Q3, representing the minimum (lower whisker) and maximum (upper whisker) values within this range. […] Error bars represent the standard error of the mean (SEM). Source data are available online for this figure.
# RNA samples were harvested from the TA muscles of 24–26-month-old male C57BL/6 mice treated as follows: (1) vehicle alone (5% DMSO + 5% tween 80) and (2) 5 mg/kg BML-260. Mice were treated by IP delivery every 24 h for 4 weeks (n = 3 per group). RNA-Seq was provided by Macrogen, Republic of Korea. Prior to the commencement of sequencing, QC was carried out using FastQC v0.11.7 (http://www.bioinformatics.babraham.ac.uk/projects/fastqc/). Illumina paired ends or single ends in the sequenced samples were trimmed using Trimmomatic 0.38 with various parameters (http://www.usadellab.org/cms/?page=trimmomatic). The sequences of the samples were mapped and analyzed using HISAT2 version 2.1,0, Bowtie2 2.3.4.1 (https://ccb.jhu.edu/software/hisat2/index.shtml). Potential transcripts and multiple splice variants were assembled using StringTie version 2.1.3b (https://ccb.jhu.edu/software/stringtie/). The normalized sample counts were generated using DESeq2, which was also used for normalization, visualization, and differential analysis. PCA was performed using normalized sample counts. The “apeglm” type was used to calculate shrink log2 fold changes.
# GST-tagged-DUSP22 = molecular target: T1, GST-tagged-DUSP22 (Homo sapiens, UniProt Q9NRW4); experiment: DUSP22 phosphatase activity assay (EnzChek kit, DiFMUP substrate); assay type: biochemical; settings: 45 min at room temperature, read-out: IC50, inhibition of DUSP22 activity
# T1 construct: purchased Sigma-Aldrich SRP5021
# T1 sequence (Q9NRW4 1-184): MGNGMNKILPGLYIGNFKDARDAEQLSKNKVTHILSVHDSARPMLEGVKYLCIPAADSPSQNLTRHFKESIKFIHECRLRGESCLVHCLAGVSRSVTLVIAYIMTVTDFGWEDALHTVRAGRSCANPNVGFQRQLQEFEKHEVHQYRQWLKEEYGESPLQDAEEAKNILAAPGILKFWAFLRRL
# Method: The phosphatase activity of purified DUSP22 was measured using the EnzChek® Phosphatase Assay Kit (E12020, ThermoFisher, MA, USA) following the manufacturer’s instructions. In brief, for the assay a 200 µM 6,8-difluoro-4-methylumbelliferyl phosphate (DiFMUP) working solution was prepared. 50 µL DiFMUP solution was added to each well of a black-walled microplate, followed by a 50 µL sample containing GST-tagged-DUSP22 (SRP5021, Sigma-Aldrich, MO, USA) or 1X reaction buffer, to give a total reaction volume of 100 µL per well. BML-260 and 1X reaction buffer in a 50 µL volume were then added to each well. The microplate was incubated at room temperature for 45 min in the dark and fluorescence was measured at excitation 360 nm and emission 455 nm (SpectraMAX Gemini XS, Molecular Devices, CA, USA).
# A) Phosphatase activity assay for DUSP22 and inhibition by BML-260. […] (n=4) B) CB-Dock2 molecular docking analysis of BML-260 binding to the active site of DUSP22, DUSP22 with an active site mutation (at C88S), and DUSP15, which is a DUSP member with the highest homology with DUSP22 (as assessed by sequence alignment).
# BML-260 binding. BML-260 bound DUSP15 at the interface of the A and B chain, distinct from the predicted active site at position 85. n represents technical replicates analyzed by Stu-dent’s t test. […]
# C2C12 myotubes = experiment: SUnSET assay of protein synthesis; assay type: cell-based, mouse; settings: 10 μM Dex 24 h, 12.5 μM BML-260
# Method: The surface sensing of translation (SUnSET) assay was used to measured protein synthesis, in accordance with the published protocol (Vinel et al, [2018]). In brief, 1 μg/mL puromycin was added to the myotube cultures and cell lysates were then harvested 10 min later. Western blotting was carried out using an anti-puromycin 12D10 antibody (MABE343; Millipore).
smiles,measurement,setting,value
O=C(O)c1ccc(N2C(=O)C(=Cc3ccccc3)SC2=S)cc1 (stereo in doubt) [BML-260],expression of Six1 and Six4,[1],upregulated
same,expression of fast myosin (MYH4),[1],increased
same,expression of musclin (OSTN),[1],upregulated
same,genes linked to FOXO3a signaling (including atrogin-1 and MuRF-1),[1],downregulated
same,genes linked to the PI3K-Akt pathway,[1],downregulated
same,number of differentially expressed genes (DEGs),[1]; versus vehicle,350
same,IC50,GST-tagged-DUSP22,54 µM
same,protein synthesis (puromycin incorporation),C2C12 myotubes,prevented the reduction in protein synthesis
